Data: patent US20200270309A1, “MALEIMIDE GROUP-MODIFIED ANGIOGENESIS INHIBITOR HM-1 AND USE THEREOF” (NANJING ANJI BIOLOGICAL TECHNOLOGY CO., LTD, priority 2017, published 2020)
Marks after values point to notes of the source that are not given here. Peptide text beside a SMILES is read from it. * marks the point of attachment. X84 = O=C1C=CC(=O)N1c1ccccc1CCCCCCCCCCCCC(=O)*; X68 = O=C1C=CC(=O)N1c1ccccc1CCCCCCCCCCCC(=O)*

Assays:
[1] = Half-lives and pharmacokinetic parameters of polypeptides vs HM-1; settings: in vivo; for half-life: T1/2β (half-life)
[2] = tested on: HUVECs; experiment: Transwell migration inhibition on HUVECs; assay type: cell-based, human; settings: for Inhibition rate (%): HUVEC migration vs blank control; for Cell migration number (Mean ± SD): HUVECs, transwell, 24 h
[3] = tested on: IL-1β production by mouse peritoneal macrophages; experiment: IL-1β production by mouse peritoneal macrophages (ELISA); assay type: cell-based; settings: for Inhibition rate: IL-1β production, vs model group; for IL-1β: mouse peritoneal macrophages, 48 h, ELISA
Summary of the method: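 Starch-elicited (6%, i.p.) mouse peritoneal macrophages, 2×10^6 cells/mL in RPMI 1640, adhered 3 h; non-adherent cells washed off. Polypeptides added at low, medium and high concentrations, Dex as positive control; cultured 48 h, supernatant IL-1β measured.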

[4] = tested on: xylene-induced ear swelling; experiment: Xylene-induced mouse ear swelling; assay type: in vivo; settings: Kunming mice, injected once a day for 5 days; for Swelling degree / Swelling degree (mg): right minus left ear piece weight 2 h after xylene; for Inhibition rate (%): xylene-induced ear swelling
Summary of the method: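 Kunming mice dosed by injection once daily for 5 days; 1 h after last dose, 0.05 mL xylene applied to right ear, left ear untreated. Mice killed 2 h later; punched ear pieces weighed. Swelling degree = right minus left ear weight; swelling rate = swelling degree/left ear weight ×100%.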

[5] = tested on: collagen-induced arthritis; experiment: Mouse collagen-induced arthritis (CIA) animal model; assay type: in vivo; settings: DBA/1 mice CIA model, dose 4.0 mg/kg, subcutaneous from day 30, n=10; for Clinical score: highest score 16
[6] = tested on: retinal neovascularization (OIR model); experiment: Retinal vessels in OIR mice; assay type: in vivo, C57/B16 mice; settings: for Area of neovascular plexus (mm^2): dose 0.05 μM in the vitreous chamber on day 13, retinal vessels evaluated on day 17; for Inhibition rate (%): dose 0.05 μM in the vitreous chamber on day 13, retinal vessels evaluated on day 17, vs negative control
Summary of the method: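 C57/B16 pups were held in 75% oxygen from postnatal day 7 to 12, then returned to room air. On day 13 they received intravitreal saline or compound. On day 17 perfused vessels were labelled by Texas red tomato agglutinin injected into the left ventricle (5 min circulation) and retinal vasculature assessed.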

[7] = tested on: retinal vascular endothelial nuclei; experiment: Neovascularization in a rat model of premature retinopathy; assay type: in vivo, rats; settings: dose 0.05 μM in the vitreous chamber from day 7 of modeling for one week; counted on day 14; oxygen-induced neonatal rats
Summary of the method: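 Newborn rats kept 7 d in chamber alternating 80% and 10% O2 every 24 h (23 °C), then room air. Intravitreal injection of test agents on day 7, saline for model and control; eyes taken day 14, HE-stained 4 μm sections. Endothelial nuclei breaching retinal inner limiting membrane counted, averaged per section per eye (10 sections).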

Compound | AUC(0-inf) [1] [ng·h/mL] | MRT inf [1] [h] | clearance [1] [mL/min/kg] | half-life [1] [h] | Inhibition rate (%) ([2]; dose 0.05 μM) | Inhibition rate (%) ([2]; dose 0.1 μM) | Inhibition rate (%) ([2]; dose 0.2 μM) | Inhibition rate ([3]; dose 0.05 μM) [%] | IL-1β ([3]; dose 0.05 μM) [pg/mL] | Inhibition rate ([3]; dose 0.1 μM) [%] | IL-1β ([3]; dose 0.1 μM) [pg/mL] | Inhibition rate ([3]; dose 0.2 μM) [%] | IL-1β ([3]; dose 0.2 μM) [pg/mL] | Swelling degree ([4]; dose 2 mg/kg) [mg] | Inhibition rate (%) ([4]; dose 2 mg/kg) | Swelling degree (mg) ([4]; dose 4 mg/kg) | Inhibition rate (%) ([4]; dose 4 mg/kg) | Swelling degree (mg) ([4]; dose 8 mg/kg) | Inhibition rate (%) ([4]; dose 8 mg/kg) | Joint swelling degree (mm) [5] [mm] | also measured
C[C@H](NC(=O)CNC(=O)[C@H](CCCNC(=N)N)NC(=O)CCCCCCCCCCCCc1ccccc1N1C(=O)C=CC1=O)C(=O)N[C@@H](CC(=O)O)C(=O)N[C@@H](CCCNC(=N)N)C(=O)N[C@@H](C)C(=O)NCC(=O)NCC(=O)NCC(=O)NCC(=O)N[C@@H](CCCNC(=N)N)C(=O)NCC(=O)N[C@@H](CC(=O)O)C(=O)O [X24] (X84-RGADRAGGGGRGD-OH) | 29700 ± 7580 | 53.1 ± 13.5 | 0.562 | 36.77 ± 0.29 | 49.57 | 49.95 | 51.01 | 29.88 | 659.97 ± 17.07 | 31.39 | 645.67 ± 11.87 | 41.69 | 548.82 ± 19.58 | 5.25 ± 0.06 | 15.73 | 4.98 ± 0.19* mg | 20.06 | 4.34 ± 0.68** mg | 30.34 | 0.82 ± 0.11 | Cell migration number (Mean ± SD) ([2]; dose 0.05 μM): 540.49 ± 60.98; Cell migration number (Mean ± SD) ([2]; dose 0.1 μM): 536.51 ± 42.41; Cell migration number (Mean ± SD) ([2]; dose 0.2 μM): 525.06 ± 53.33; Left and right paw swelling degree (mm) [5]: 0.71 ± 0.12 mm; Clinical score [5]: 8.94 ± 1.41; Area of neovascular plexus (mm^2) [6]: 0.107 ± 0.012 mm^2; Inhibition rate (%) [6]: 49.53%*; Nuclei count (retinal vascular endothelial nuclei, average per section per eyeball) [7]: 7.699 ± 3.108
C[C@H](NC(=O)CNC(=O)[C@H](CCCNC(=N)N)NC(=O)CCCCCCCCCCCc1ccccc1N1C(=O)C=CC1=O)C(=O)N[C@@H](CC(=O)O)C(=O)N[C@@H](CCCNC(=N)N)C(=O)N[C@@H](C)C(=O)NCC(=O)NCC(=O)NCC(=O)NCC(=O)N[C@@H](CCCNC(=N)N)C(=O)NCC(=O)N[C@@H](CC(=O)O)C(=O)O [X23] (X68-RGADRAGGGGRGD-OH) | 25600 ± 8510 | 45.8 ± 10.6 | 0.652 | 31.72 ± 0.25 | 48.22 | 51.50 | 52.06 | 15.69 | 793.48 ± 19.42 | 30.92 | 650.17 ± 14.98 | 33.74 | 623.64 ± 12.33 | 5.64 ± 0.84 | 9.47 | 3.63 ± 0.51** mg | 41.73 | 3.47 ± 0.06** mg | 44.30 | 0.77 ± 0.17 | Left and right paw swelling degree (mm) [5]: 0.77 ± 0.15 mm; Clinical score [5]: 9.15 ± 1.47; Area of neovascular plexus (mm^2) [6]: 0.101 ± 0.002 mm^2; Inhibition rate (%) [6]: 52.36%**; Nuclei count (retinal vascular endothelial nuclei, average per section per eyeball) [7]: 8.275 ± 1.713
